From US4457919A, “Method of imparting immunomodulating, antiviral or antitumor activity” (Newport Pharmaceutical International, Inc., priority 1982, dated 1984)
Entries after “also recorded” stand apart in the source; their conditions may differ. Where two headings read alike, the source gives them in different places.

Experiments:
[1] = Formation of NPT 15392 on incubation with Vero cells (HPLC); type: in vitro ADME, African Green Monkey; details: monkey, 24 hrs.
Source text: (§1) | ^a Determined using HPLC

[2] = tested on: Vero Cells; test: as above; type: in vitro ADME, African Green Monkey; details: 0 hrs.
Source text: as §1

[3] = tested on: IgM antibody production to sheep red blood cells; test: IgM antibody formation in SRBC-immunized Balb/c mice (immunoplaque assay, in vivo); details: for Immunomodulating (in vivo) IgM formation (in words): SRBC immunized mice
Description: 4. Enhancement of IgM antibody formation in mice immunized with sheep red blood cells (SRBC) (in vivo).
4. NPT 15457 and NPT 15458 and the "active" drug, NPT 15392, were given to Balb/c mice who had been immunized with sheep red blood cells SRBC. Antibody production to SRBC was measured. […] NPT 15392, at the levels studied, produce a 46% increase in IgM production. Higher doses of NPT 15392 will cause less of an increase or decrease over control values. […] This is to be expected since NPT 15458 produces very high levels of NPT 15392 which are most likely inhibitory to IgM formation.
1. Mice are immunized as follows: sheep blood (sheep #23) is received weekly from Hyland Labs. It is aseptically collected in two volumes of Alseviers to one volume of blood.
2. Five-tenths ml of the sheep blood in Alseviers is washed three times in sterile PBS in an IEC clinical centrifuge, setting #4 (2800 rpm) for 10 min. at room temperature.
3. The pellet is resuspended in 1:10 in sterile PBS.
4. A model Z Coulter counter is calibrated according to Coulter Instruction Manual.
5. A […] dilution is needed for a Coulter counter cell count and is obtained by first making a 1:100 dilution in PBS and then diluting this solution 1:10 in isoton. The Coulter counter threshold is adjusted to setting #5.
6. The cell count is determined and the stock solution is diluted to 4×10^7 cells/ml. This final suspension is used for immunization.
7. Each mouse is immunized by i.v. injection into the lateral tail vein (warmed in a 50° C. water bath for veinous dilation) with 0.1 ml SRBC suspension; the final concentration of SRBC's is 4×10^6 per mouse.
1. Mice are treated by i.p. injection on days 0, 1, 2 and 3. A syringe (1 cc) is fitted with a one-half inch, 26 gauge needle. The needle is introduced at a 45° angle along the right side of the linea alba. A 0.2 ml volume is given to both drug and control treated groups.
2. Drug groups are given 0.2 ml of a desired concentration NPT 15392 solution which, for a 20 g mouse, is 5 μg/ml.
1. Spleens are removed aseptically and placed individually in Falcon #2025 tissue culture tubes containing 3 ml MEM. The tubes are then stored on ice.
2. Spleens are homogenized in the same tube with a teflon pestle attached to a G. K. Heller variable speed reversible motor connected with a G. K. Heller GT-21 motor controller setting #6.
3. The homogenization time and action should be uniform from sample to sample.
4. Samples are then filtered through a 100 mesh 40 micron stainless screen into a standard tissue culture tube. The screen is rinsed with 3 ml MEM and the cell suspension is stored on ice.
5. A 1:1000 dilution is made for a Coulter counter cell count and is obtained by first making a 1:100 dilution in PBS followed by a 1:10 dilution in isoton.
6. The cell count is obtained and the stock suspension is diluted to 1×10^7 cells/ml. The Coulter counter threshold is set at 10. Red cells are lysed with three drops of Zap isoton.
Agar plates are removed from regrigerator and allowed to warm to room temperature. They are labeled in triplicate for each experimental group.
2. Agar-filled tubes are removed from the water bath. One-tenth of the 10% SRBC's and 0.1 ml spleen cell suspension are added to each agar tube. The tubes are agitated on a Vortex mixer.
3. The contents of the tubes are poured immediately into agar base plates and swirled until a smooth layer is formed. The plates are placed on a level surface until the agar solidifies.
4. The plates are incubated at 37° C. in a humidified atmosphere of 5% CO2 and 95% air for 90 min.
5. Guinea pig complement (see preparation, section D) is removed from freezer, thawed at room temperature and diluted 1:10 in PBS.
6. Plates are removed from incubator and 1 ml of the diluted complement is added to each plate.
7. Plates are then incubated another 30-45 minutes at 37° C. Plates are then removed from incubator and counted using oblique light.
8. […]

[4] = tested on: Influenza virus (A sub-type)
[5] = Chemical stability at varying pH, conversion to NPT 15392 (HPLC); type: physicochemical; details: for Chemical stability (in words): 37° C., neutral pH; for degraded at 3.5 h, 360 µM: 3.5 hours incubation at 37° C., 0.36 μm/ml
Description: Compound (conc.) % of NPT 15392*
*3.5 hours incubation at 37° C., determined using HPLC

[6] = Formation of NPT 15392 on incubation with human peripheral blood lymphocytes (HPLC); type: in vitro ADME; details: human, peripheral blood lymphocytes
Source text: as §1

[7] = tested on: HPBL; test: as above; type: in vitro ADME; details: HPBL, 0 hrs.
Source text: as §1

[8] = tested on: HPBL (active E-rosettes); test: Enhancement of active E-rosette formation in HPBL (in vitro); type: cell-based, human; details: for Immunomodulating (in vitro) Rosette, change: Table 11 summary; for Immunomodulating (in vitro) rosette formation (in words): active rosettes, HPBL
Description: 3. Enhancement of active rosette formation (in vitro).
3. As can be noted from Table 7, both NPT 15457 and NPT 15458 are effective in modulating active rosette formation in HPBL. […] In Experiment #2, placebo-treated controls have abnormally high values for active rosettes.
1. Ten to 40 ml of whole blood is drawn from healthy volunteers in heparinized tubes.
2. Lymphocytes are separated from the above blood using Ficoll-hypaque separation techniques.
3. Various concentration of test compound are prepared in RPMI-1640.
4. The concentration of lymphocytes are adjusted to 2×10^6 /ml of RPMI-1640.
5. Lymphocytes are incubated with test compound for 90 minutes at 37° C.
6. Sheep Red Blood Cells (SRBC.s) (one to two weeks old) are washed 3 times with PBS and diluted to a final concentration of 0.5% inj RPMI-1640.
7. Reaction tubes are set up containing the following:
8. The above reactants are centrifuged at 200×g for 5 minutes at room temperature.
9. The sediment is then gently resuspended and a […] sample placed in a hemocytometer.
10. The number of rosettes are then counted using a microscope with any lymphocyte having 3 or more attached red cells being counted as a rosette.

[9] = Expt 1, 1.8 n moles/kg × 4 i.p., all p ≤ 0.01 vs placebo
[10] = Expt 1, 1.8 n moles/kg × 4 i.p., control 28 ± 2
[11] = Expt 2, .18 n moles/kg × 4 i.p., NPT 15392 and NPT 15458 p ≤ 0.01 vs placebo
[12] = Expt 2, .18 n moles/kg × 4 i.p., control 46 ± 2
[13] = HPBL, 24 hrs., read-out: % of NPT 15392
[14] = Table 11 summary, read-out: Convertible to NPT 15392, Biological: HPBL
[15] = Experiment #1, 3.6 n moles/ml, placebo 9.23 ± 2.9, NPT 15457 and NPT 15458 p ≤ 0.05 versus placebo
[16] = Experiment #2, 0.36 n moles/ml, placebo 34.2 ± 6.6, NPT 15392 and NPT 15458 p ≤ 0.05 versus placebo

| Compound | metabolised at 24 h [1] [%] | % of NPT 15392 [2] [%] | # IgM Plaques % of Control [3, 9] [%] | # IgM Plaques (mean ± S.E.) [3, 10] | # IgM Plaques % of Control [3, 11] [%] | # IgM Plaques (mean ± S.E.) [3, 12] | Immunomodulating (in vivo) IgM formation (in words) [3] | % Inhibition of Influenza Virus Growth ([4]; 3.6 nmoles/ml) [%] | % Inhibition of Influenza Virus Growth ([4]; 10.8 nmoles/ml) [%] | % Inhibition of Influenza Virus Growth ([4]; 36 nmoles/ml) [%] | % Inhibition of Influenza Virus Growth ([4]; .36 nmoles/ml) [%] | degraded at 3.5 h, 360 µM ([5]; pH 1.0) [%] | degraded at 3.5 h, 360 µM ([5]; pH 7.0) [%] | degraded at 3.5 h, 360 µM ([5]; pH 9.5) [%] | metabolised at 24 h [6, 13] [%] | % of NPT 15392 [7] [%] | % Active E-Rosettes (mean ± S.E.) [8, 15] [%] | % Active E-Rosettes (mean ± S.E.) [8, 16] [%] | Immunomodulating (in vitro) Rosette, change [8] | Immunomodulating (in vitro) rosette formation (in words) [8] | further results |
| --- | --- | --- | --- | --- | --- | --- | --- | --- | --- | --- | --- | --- | --- | --- | --- | --- | --- | --- | --- | --- | --- |
| CCCCCC[C@H]([C@H](C)OC(=O)CCC(=O)O)n1cnc2c(=O)[nH]cnc21 (relative stereo) [NPT 15457, Erythro-9-(2-Succinoxy-3-Nonyl) Hypoxanthine] | 0 | 0 | 68 | 19 ± 3 | 102 | 47 ± 3 | less than that of NPT 15458; also recorded: Moderate | 0 | 18 | 13 | 18 | 2 | 0 | 8 | 18.2 | 0 | 24.8 ± 6 | 33.6 ± 2.4 | +166% | as active as NPT 15392 in restoring the depressed immunity to normal levels and Yes | Immunomodulating (in vivo) SRPC-IgM, range ([3]; Table 11 summary, unit not given): 0-60; Chemical stability (in words) [5]: have stability; Chemical conversion to NPT 15392 (in words) ([5]; pH 7.0): No; Chemical conversion to NPT 15392 (in words) ([5]; pH 9.5): basic hydrolysis at pH 9.5 can convert and Yes; metabolised at 24 h [6, 14]: 18% |
| CCCCCC[C@H]([C@H](C)OC(C)=O)n1cnc2c(=O)[nH]cnc21 (relative stereo) [NPT 15458, erythro-9-(2-Acetoxy-3-Nonyl)-Hypoxanthine] | 50 | 0 | 28.5 | 8 ± 1 | 23.9 | 11 ± 1 | produces an inhibition of IgM formation and very effective in modulating the production of IgM antibodies and Yes | 40 | 80 | 88 | 26 | 8 | 0 | 28 | 100 | 0 | 19.4 ± 1.0 | 23.25 ± 1.24 | +11% | as active as NPT 15392 in restoring the depressed immunity to normal levels and able to decrease the high levels of normal values and Yes | Immunomodulating (in vivo) SRPC-IgM, change ([3]; Table 11 summary): -72%; Cleavage to NPT 15392 (in words) ([4]; hemadsorption assay): almost completely cleaved to NPT 15392; Antiviral activity in vitro (in words) [4]: Yes; Chemical stability (in words) [5]: have stability; Chemical conversion to NPT 15392 (in words) ([5]; pH 7.0): No; Chemical conversion to NPT 15392 (in words) ([5]; pH 9.5): basic hydrolysis at pH 9.5 can convert and Yes; metabolised at 24 h [6, 14]: 100% |
| CCCCCC[C@H]([C@H](C)O)n1cnc2c(=O)[nH]cnc21 (relative stereo) [NPT 15392, erythro-9-(2-hydroxy-3-nonyl)-hypoxanthine, reference compound] | 100 | 100 | 146 | 41 ± 4 | 147 | 68 ± 2 | very effective in modulating the production of IgM antibodies and Yes | 30 | 42 | 73 | 20 | 100 | 100 | 100 | 100 | 100 | 16.2 ± 1.0 | 15.4 ± 2.9 | +78% | able to decrease the high levels of normal values and Yes | Immunomodulating (in vivo) SRPC-IgM, change ([3]; Table 11 summary): +46%; Increase in IgM production ([3]; at the levels studied): 46%; Antiviral activity in vitro (in words) [4]: Yes |
